1 sequence from patent EP1847550A2, “Peptides effective in the treatment of tumors and other conditions requiring the removal or destruction of cells” (NYMOX CORPORATION, priority 2001, dated 2007) can be followed below.

Ends that are not written are not given here.

Data set [1] has as its system Rat prostate. The data set can be described thus: Intraprostatic infusion in rats, histology of the prostate gland after 72 hours. In kind it is in vivo. To be noted: 300 µl of 1 mg/mL in PBS pH 7.4 (1.0 mg/kg), sacrificed after 72 hours, H & E histology. The method, then: Four rats were anesthetized with ether and given NTP peptide #7 by intraprostatic infusion. The injections consisted of 300 µl of NTP peptide #7 1 mg/mL in PBS pH 7.4. (1.0 mg/kg). Controls received injections of PBS alone or no injection. Rats were painlessly sacrificed after 72 hours. Prostate glands were dissected, fixed in 10% buffered formalin for 24 hours, embedded in paraffin, sectioned, and stained with H & E. For each animal the entire prostate gland was embedded and sectioned. All stained sections were examined histologically.
Normal rats were injected in the prostate as in the above Example 2, except they were injected with NTP peptide #17. Rats were painlessly sacrificed after 72 hours and their prostate glands were examined as in Example 2.

For data set [2], the system named is muscle tissue, subcutaneous connective tissue, and dermis. The data set can be described thus: Injection into skin, subcutaneous tissue and extremity skeletal muscle of normal rats, histopathology of injection foci at 24 hours. Type of data set: in vivo. The source says:
The individual foci of infiltration were excised, fixed in 10% formalin, embedded in paraffin, and stained and examined by standard histopathological methods.
The controls received saline alone.
Tissues were excised, fixed in 10% formalin, embedded in paraffin, and stained and examined by standard histopathological methods.

With “LSLPSSWDYG [NTP peptide #7, AD7c-NTP p335-343]”, the “effect on tissue at sites of injection (prostate)” value in data set [1] was “necrosis of tissue at the injection sites with loss of glandular epithelium, flattening and atrophy”. The “effect on tissue at sites of injection” value in data set [2] (injected in skin, subcutaneously and in extremity skeletal muscle, in saline, at 0.1-1 mg/mL, sacrificed at 24 hours) is listed as “produced necrosis of tissue at the injection sites”. The “spread of necrosis beyond the site of injection” value in data set [2] (skin, subcutaneous and skeletal muscle injection, 24 hours) is on record as “did not appear to spread far beyond the site of injection”.
